In patent US9522909B2, “Thiazolidinedione derivatives, preparation thereof and use thereof in cancer treatment” (UNIVERSITE DE LORRAINE, priority 2012, dated 2016):
Where a name gives a salt, the structure may show the parent alone.

Experiments:
HepG2 = assay: Antiproliferative activity (MTS) on HepG2; assay type: cell-based; details: Homo sapiens, 72 hours; for inhibition at 10 µM: 10^-5 M, triplicate, read-out: percentage of inhibition of cell growth, HepG2; for IC50: averages of two independent values
Description: (§1) Antiproliferative activity was measured for different compounds according to the invention by analysis of cytoxicity at 10^−5M on diverse cancer cell lines in DMSO in triplicate. For certain molecules and certain lines, the same procedure was used for determining the IC50 values (the required concentration in μM for inhibiting by half the proliferation of the cells), by conducting cytotoxicity tests at concentrations from 0.005 μM to 100 μM in duplicate. The procedure is the following. The cells of the relevant line are sown in the suitable medium (see Table III) added with L-glutamine, with 10% (v/v) of fetal calf serum, 100 IU of penicillin, 100 μg/mL of streptomycin and 1.5 μg/mL of fungizone and maintained under 5% of CO2 at 37° C. 96-well plates are sown with the required number of cells per well (see Table III) in 200 μL of medium. 24 hours later, the chemical compounds to be investigated, dissolved in DMSO, are added and the media are maintained for 72 hours under these conditions with a set final concentration in DMSO (1%). The controls received an equal volume of DMSO. The number of viable cells is measured at 490 nm with the MTS reagent (Promega, Madison Wis.). The IC50s are calculated as the concentrations of compounds inducing 50% inhibition of cell proliferation.
(§2) Tables IV and V below indicate the percentage of inhibition of cell growth, i.e. the percentage of dead cells after treatment with a compound dose of 10^−5 M. The tests were conducted in triplicate.

MDA435 = assay: Antiproliferative activity (MTS) on MDA435; assay type: cell-based; details: Homo sapiens, 10^-5 M, 72 hours, triplicate, read-out: percentage of inhibition of cell growth, MDA435
Description: as §1, §2

PC3 = assay: Antiproliferative activity (MTS) on PC3; assay type: cell-based; details: Homo sapiens, PC-3; 10^-5 M, 72 hours, triplicate; read-out: percentage of inhibition of cell growth, PC3
Description: as §1, §2

LNCaP = assay: Antiproliferative activity (MTS) on LNCaP; assay type: cell-based; details: Homo sapiens, 72 hours; for inhibition at 10 µM: 10^-5 M, triplicate, read-out: percentage of inhibition of cell growth, LNCaP; for IC50: averages of two independent values
Description: as §1, §2

Mia-PaCa = assay: Antiproliferative activity (MTS) on Mia-PaCa; assay type: cell-based; details: Homo sapiens, MIA PaCa-2, 72 hours; for inhibition at 10 µM: 10^-5 M, triplicate, read-out: percentage of inhibition of cell growth, Mia-PaCa; for IC50: averages of two independent values
Description: as §1, §2

MCF7 = assay: Antiproliferative activity (MTS) on MCF7; assay type: cell-based, human; details: for inhibition at 10 µM / IC50: Homo sapiens, MCF7, 72 hours; for inhibition at 10 µM: 10^-5 M, triplicate, read-out: percentage of inhibition of cell growth, MCF7; for IC50: averages of two independent values
Description: as §1, §2

HCT116 = assay: Antiproliferative activity (MTS) on HCT116; assay type: cell-based; details: Homo sapiens, HCT-116; 10^-5 M, 72 hours, triplicate; read-out: percentage of inhibition of cell growth, HCT116
Description: as §1, §2

MDA231 = assay: Antiproliferative activity (MTS) on MDA231; assay type: cell-based, human; details: for inhibition at 10 µM / IC50: Homo sapiens, MDA-MB-231, 72 hours; for inhibition at 10 µM: 10^-5 M, triplicate, read-out: percentage of inhibition of cell growth, MDA231; for IC50: averages of two independent values
Description: as §1, §2

[1] = tested on: cryopreserved human hepatocytes (primary culture); assay: Hepatocyte viability (MTT test) on suspended cryopreserved human hepatocytes; assay type: cell-based; details: 90 minutes incubation, relative to non treated cells
Description: The hepatocyte viability corresponds to the percentage of surviving suspended human hepatocytes after 90 minutes of incubation with the compounds of the invention present at a concentration of […].
Hepatocyte viability was measured for different compounds according to the invention with cryopreserved human hepatocytes (primary culture) suspended and distributed in 96-well plates with a density of 0.1×10^6 cells per well, in a […] culture medium per well (DMEM+gentamycin (50 mg/L)+insulin (4 mg/L)+dexamethasone (1 μM)) in a CO2/air (5%/95%) humidified atmosphere at 37° C. After 30 minutes for attaining equilibrium, […] of culture medium containing the tested compounds (dissolved in DMSO) or of medium only containing DMSO (final concentration of 0.1%) were added with stirring at 900 rpm.
Cytotoxicity is evaluated with an MTT (Thiazolyl Blue Tetrazolium Bromide) test. The tested compounds or the DMSO are left to incubate for 90 minutes, and then 10 μL of MTT at 10 mg/10 mL are added per well for 30 mins. Next, the plates are centrifuged for 10 minutes at 2,000 g, the MTT is removed and some DMSO is added in an amount of 100 μL per well. The plates are gently shaked and then absorbance is measured at 595 nm by means of a spectrophotometric reader of micro-plates. The hepatocyte viability measured here corresponds to the percentage of surviving hepatocytes after 90 minutes of incubation with the compounds tested at a concentration of 100 μM, relatively to non treated cells.
The same tests were conducted for a concentration of compounds at 200 μM.
The tests were conducted in two distinct campaigns. In both cases, troglitazone (K) was used as a reference molecule.

| SMILES | IC50 (HepG2) | IC50 (LNCaP) | IC50 (Mia-PaCa) | IC50 (MCF7) | inhibition at 10 µM (HepG2) | inhibition at 10 µM (MDA435) | inhibition at 10 µM (PC3) | inhibition at 10 µM (LNCaP) | inhibition at 10 µM (Mia-PaCa) | inhibition at 10 µM (MCF7) | inhibition at 10 µM (HCT116) | inhibition at 10 µM (MDA231) | IC50 (MDA231) | Hepatocyte viability % (100 μM) ([1]; Table I campaign) | Hepatocyte viability % (200 μM) ([1]; Table I campaign) | Hepatocyte viability % (100 μM) ([1]; Table II campaign) | Hepatocyte viability % (200 μM) ([1]; Table II campaign) | activity on hormono-dependent breast cancer cells (MCF-7), in words (MCF7) | activity on non-hormono-dependent breast cancer cells (MDA-231), in words (MDA231) |
| --- | --- | --- | --- | --- | --- | --- | --- | --- | --- | --- | --- | --- | --- | --- | --- | --- | --- | --- | --- |
| CCN(CC)c1ccc2c(-c3ccc(NC(=S)NCCCCCCc4c(C)c(C)c5c(c4C)CCC(C)(COc4ccc(/C=C6\SC(=O)NC6=O)cc4)O5)cc3C(=O)O)c3ccc(=[N+](CC)CC)cc-3oc2c1 (racemic) [Compound Q, (±) (9-{2-carboxy-4-[3-(6-{2-[4-(2,4-dioxo-thiazolidin-5-ylidenemethyl)-phenoxy-methyl]-2,5,7,8-tetramethyl-chroman-6-yl}-hexyl)-thioureido]-phenyl}-6-diethylamino-xanthen-3-ylidene)-diethyl-ammonium] |  |  |  |  | 75% | 59% | 60% | 67% | 70% | 59% | 80% | 71% |  |  |  |  |  |  |  |
| Cc1c(C)c2c(c(C)c1OC(=O)OC(C)(C)C)CCC(C)(COc1ccc(C=C3SC(=O)N(C)C3=O)cc1)O2 (racemic) [F, (±) tertiobutyl(2,5,7,8-tetramethyl-2-[4-(3-methyl-2,4-dioxo-thiazolidin-5-ylidenemethyl)-phenoxymethyl]-chroman-6-yl)carbonate] |  |  |  |  |  |  |  |  |  |  |  |  |  |  |  | 81% | 66% |  |  |
| Cc1c(C)c2c(c(C)c1O)CCC(C)(COc1ccc(/C=C3\SC(=O)N(Cc4ccccc4)C3=O)cc1)O2 (stereo not drawn) [G] |  |  |  |  |  |  |  |  |  |  |  |  |  |  |  | 87% | 63% |  |  |
| Cc1c(C)c2c(c(C)c1O)CCC(C)(COc1ccc(CC3SC(=O)NC3=O)cc1)O2 (stereo not drawn) [K, troglitazone, reference compound] |  |  |  |  | 14% | 12% | 14% | 17% | 2% | 3% | 9% | 12% |  | 79% | 30% | 52% | 22% |  |  |
| CC1(CN2C(=O)S/C(=C\c3cc(Br)c(O)c(Br)c3)C2=O)CCCCC1 [L, reference compound] | 8.8 µM | 1.8 µM | 8.1 µM | 9.3 µM | 74% | 69% | 47% | 81% | 65% | 76% | 87% | 53% | 5.7 µM | 42% | 30% |  |  |  |  |

Second part, led by results:

| IC50 (HepG2) | IC50 (LNCaP) | IC50 (Mia-PaCa) | IC50 (MCF7) | SMILES | inhibition at 10 µM (HepG2) | inhibition at 10 µM (MDA435) | inhibition at 10 µM (PC3) | inhibition at 10 µM (LNCaP) | inhibition at 10 µM (Mia-PaCa) | inhibition at 10 µM (MCF7) | inhibition at 10 µM (HCT116) | inhibition at 10 µM (MDA231) | IC50 (MDA231) | Hepatocyte viability % (100 μM) ([1]; Table I campaign) | Hepatocyte viability % (200 μM) ([1]; Table I campaign) | Hepatocyte viability % (100 μM) ([1]; Table II campaign) | Hepatocyte viability % (200 μM) ([1]; Table II campaign) | activity on hormono-dependent breast cancer cells (MCF-7), in words (MCF7) | activity on non-hormono-dependent breast cancer cells (MDA-231), in words (MDA231) |
| --- | --- | --- | --- | --- | --- | --- | --- | --- | --- | --- | --- | --- | --- | --- | --- | --- | --- | --- | --- |
| 2.4 µM | 6.4 µM | 8.8 µM | 9.6 µM | Cc1c(C)c2c(c(C)c1CCCCCCNC(=O)OC(C)(C)C)CCC(C)(COc1ccc(/C=C3\SC(=O)NC3=O)cc1)O2 (racemic) [C, (±) Tert-butyl(6-{2-[4-(2,4-dioxo-thiazolidin-5-ylidenemethyl)-phenoxymethyl]-2,5,7,8-tetramethyl-chroman-6-yl}-hexyl)-carbamate] | 77% | 39% | 26% | 68% | 30% | 24% | 55% | 51% | 2.1 µM | 85% | 80% |  |  |  |  |
| 1 µM | 1 µM | 0.6 µM | 0.9 µM | Cc1c(C)c2c(c(C)c1OC(=O)CCCCCCCN)CCC(C)(COc1ccc(/C=C3\SC(=O)N(C)C3=O)cc1)O2 (racemic) [Compound B, (±) 8-amino {2,5,7,8-tetramethyl-2-[4-(3-methyl-2,4-dioxo-thiazolidin-5-ylidenemethyl)-phenoxymethyl]-chroman-6-yl}octanoate trifluoroacetate] | 92% | 100% | 98% | 91% | 101% | 101% | 99% | 101% | 0.2 µM |  |  |  |  |  |  |
| 5.7 µM | 6.1 µM | 1.3 µM | 3.4 µM | Cc1c(C)c2c(c(C)c1O)CCC(C)(CN1C(=O)S/C(=C\c3ccc(O)cc3)C1=O)O2 (racemic) [H, (±) 5-(4-hydroxy-benzylidene)-3-(6-hydroxy-2,5,7,8-tetramethyl-chroman-2-ylmethyl)-thiazolidine-2,4-dione] | 79% | 87% | 64% | 51% | 102% | 95% | 95% | 95% | 1.9 µM |  |  | 110% | 103% |  |  |
| 20.4 µM | 17.4 µM | 24.5 µM | 52.6 µM | Cc1c(C)c2c(c(C)c1O)CCC(C)(COc1ccc(/C=C3\SC(=O)N(C)C3=O)cc1)O2 (racemic) [J, (±) 5-[4-(6-Hydroxy-2,5,7,8-tetramethyl-chroman-2-ylmethoxy)-benzylidene]-3-methyl-thiazolidine-2,4-dione] | 40% | 5% | 14% | 33% | 20% | 0% | 32% | 36% | 4.9 µM |  |  | 120% | 120% | inactive | active |
| 10.1 µM | 19.4 µM | 4.8 µM | 5.2 µM | O=C1S/C(=C\c2ccc(O)cc2)C(=O)N1C/C=C/c1ccccc1 [Compound A, 5-(4-hydroxy-benzylidene)-3-(3-phenyl-allyl)-thiazolidine-2,4-dione] | 59% | 82% | 43% | 37% | 84% | 65% | 83% | 91% | 2.2 µM | 89% | 63% |  |  |  |  |
